Results on one molecule are retold here after US9175305B2, “Mutant hydroxyphenylpyruvate dioxygenase polypeptides and methods of use” (Syngenta Participations AG, priority 2009, dated 2015).

One assay deals with HPPD SEQ ID NO:23 (Avena sativa, UniProt A0ACD5V6K6, A242W/DEL109-109). As to the kind of experiment: biochemical. The format is binding. Conditions: read-out: kon (k2).
The target in the next assay is HPPD SEQ ID NO:25 (Avena sativa, UniProt A0ACD5V6K6, DEL109-109/L359A). As to the kind of experiment: biochemical. The format is binding.
Chain of HPPD SEQ ID NO:25 (A0ACD5V6K6 entry or part of it DEL109-109/L359A): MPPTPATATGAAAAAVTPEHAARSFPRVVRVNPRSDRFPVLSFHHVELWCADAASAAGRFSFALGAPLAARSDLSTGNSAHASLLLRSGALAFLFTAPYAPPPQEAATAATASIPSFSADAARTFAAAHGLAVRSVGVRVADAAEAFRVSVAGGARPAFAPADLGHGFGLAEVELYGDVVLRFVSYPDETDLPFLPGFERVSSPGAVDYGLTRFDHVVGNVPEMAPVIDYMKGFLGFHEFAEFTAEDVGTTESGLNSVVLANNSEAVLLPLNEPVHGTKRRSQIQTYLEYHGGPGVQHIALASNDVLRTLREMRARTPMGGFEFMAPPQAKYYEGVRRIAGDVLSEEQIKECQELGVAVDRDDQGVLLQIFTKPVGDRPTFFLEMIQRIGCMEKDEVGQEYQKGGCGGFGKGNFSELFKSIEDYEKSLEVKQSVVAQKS
In another assay the target is HPPD SEQ ID NO:26 (Avena sativa, UniProt A0ACD5V6K6, DEL109-109/L256M/L359M). As to the kind of experiment: biochemical. The format is binding. Conditions: read-out: koff (k1). On the procedure:
On rates (governed by an association rate constant, kon) for the formation of the enzyme: inhibitor complexes, EI and off rates (governed by a dissociation rate constant, koff) were determined by methods known in the art and essentially as described in Hawkes et al. (2001) Proc. Bright. Crop. Prot. Conf. Weeds, 2:563-568 and in PCT Patent App. Pub. No. WO 02/46387).
For example, on rates were measured by, at zero time, adding ˜60 pmoles HPPD to 50 mM BisTrisPropane buffer at pH7.0 and at 25° C. containing 25 mM Na ascorbate, 4 μg/ml bovine catalase (Sigma, St. Louis, Mo.) and an excess (˜300 pmoles) of ^14C inhibitor in a total assay volume of 425 μl and, at various time points (0-180 s), quenching the radiolabel binding reaction by addition and rapid mixing of 100 μl ‘cold’ 1 mM structure A. Protein samples quenched at different times were then exchanged into 50 mM BisTrisPropane buffer at pH 7.0 containing 0.1M KCl by rapid chromatography down a NAP5 G25 Sephadex column (GE Healthcare Ltd, Buckinghamshire UK) and the amount of ^14C bound to protein fractions quantified in Optiphase scintillant using a Tri-Carb 2900TR scintillation counter (Perkin Elmer, Wellesley, Mass.). The data were fit according to the scheme below in order to derive the value of the apparent second order rate constant, k2, governing the association rate of enzyme and radiolabelled inhibitor. […]

Assay [1] relates to G408A mutant of HPPD SEQ ID NO:14. Put plainly: time course of inhibition of enzyme activity. Conditions: inhibitor at 0.15 or 0.6 μM. The format is biochemical, Avena sativa.
Assay [2] deals with soybean event 1 (vector 15764) expressing SEQ ID NO:14. As to the kind of experiment: herbicide spray test on soybean events. The format is in vivo. The following applies: C 400 g/ha; event 1/SEQ#14; V2 growth stage; 14 DAT; average of n=7. From the text:
(§1) Each data point represents the average damage score from n=7 replicates.
(§2) These events were used to compare the performance of five 17147 events. Four of these, SF, S8, S7 and S3 had not been preselected for tolerance level (other than to confirm resistance, non-chimerical nature and the presence of the gene) while the remaining event, T0, had been preselected as the most resistant out of five 17147 events in a preliminary field test.
(§3) Plants were in 4×4×4 inch plastic pots and grown under a 15/9 hour light regime (daylight supplemented by artificial light in greenhouses) at a minimum night-time temperature of 18° C. and maximum daytime temperature of 27° C. Soil was regular VBRC mix (1:1 mixture of Vero field soil and Fafard Mix II) where Vero field soil is 98% sand and 2% clay. […] Spray volume was 150 L/ha and the damage scores reflect assessments at 14 DAT.

For assay [3], the system named is soybean event 2 (vector 15764) expressing SEQ ID NO:14. As to the kind of experiment: herbicide spray test on soybean events. The format is in vivo. Conditions: C 400 g/ha; event 2/SEQ#14; V2 growth stage; 14 DAT; average of n=7.
Description: as §1, §2, §3

Assay [4] relates to soybean event S3 (vector 17147) expressing SEQ ID NO:24. Put plainly: herbicide spray test on soybean events. Conditions: C 400 g/ha; event S3/SEQ#24; V2 growth stage; 14 DAT; average of n=7. The format is in vivo.
Description: as §1, §2, §3

The test system of assay [5] is soybean event S7 (vector 17147) expressing SEQ ID NO:24. Put plainly: herbicide spray test on soybean events. Conditions: C 400 g/ha; event S7/SEQ#24; V2 growth stage; 14 DAT; average of n=7. The format is in vivo.
Description: as §1, §2, §3

The test system of assay [6] is soybean event S8 (vector 17147) expressing SEQ ID NO:24. As to the kind of experiment: herbicide spray test on soybean events. The format is in vivo. Conditions: C 400 g/ha; event S8/SEQ#24; V2 growth stage; 14 DAT; average of n=7.
Description: as §1, §2, §3

In assay [7] the test system is soybean event SF (vector 17147) expressing SEQ ID NO:24. As to the kind of experiment: herbicide spray test on soybean events. The format is in vivo. Conditions: C 400 g/ha; event SF/SEQ#24; V2 growth stage; 14 DAT; average of n=7.
Description: as §1, §2, §3

For assay [8], the system named is soybean event T0 (vector 17147) expressing SEQ ID NO:24. As to the kind of experiment: herbicide spray test on soybean events. The format is in vivo. Conditions: C 400 g/ha; event T0/SEQ#24; V2 growth stage; 14 DAT; average of n=7.
Description: as §1, §2, §3

Chain of HPPD SEQ ID NO:23 (A0ACD5V6K6 entry or part of it DEL109-109/A242W): as the sequence (A0ACD5V6K6 entry or part of it DEL109-109/L359A) above, with A241W, A358L counted along it
Chain of HPPD SEQ ID NO:26 (A0ACD5V6K6 entry or part of it DEL109-109/L256M/L359M): as the sequence (A0ACD5V6K6 entry or part of it DEL109-109/L359A) above, with L255M, A358M counted along it

In the case of `COCCOCc1nc(C(F)(F)F)ccc1C(=O)C1C(=O)C2CCC(C2)C1=O` (stereo not shown) [Structure C], the kon (usually the rate constant with which the complex forms) worked out at 7500 M⁻¹ s⁻¹ on HPPD SEQ ID NO:23 and 4800 M⁻¹ s⁻¹ on HPPD SEQ ID NO:25 (read-out: kon (k2)). Besides, at HPPD SEQ ID NO:25, the Kd (in general, the concentration at which binding is half-saturated) was 23 nM. In addition, the koff (in general, a measure of how fast the partners let go of each other) at HPPD SEQ ID NO:25 (read-out: koff (k1)) came out at 0.000113 s⁻¹; on HPPD SEQ ID NO:26 it was 9e-05 s⁻¹. Also, in [1], the “extent of inhibition compared with the control enzyme” value is on record as “to a lesser extent”. The “% dam.” value in assay [2] stood at 42.1%; in assay [3] it was 52.9%; in [4], 62.1%; in [5], 45%; in assay [6] it was 68.6%; in assay [7] it was 98.6%. For the same molecule, the “% dam.” value in [8] was determined as 45%.
